Data from ChEMBL document CHEMBL1671653, “GT-1a or GT-1b subtype-specific resistance profiles for hepatitis C virus inhibitors telaprevir and HCV-796” (Antimicrob Agents Chemother, 2009).

Legend:
Format in all cases: functional, organism-based, Hepacivirus hominis
Hepatitis C virus [1] = assay: Antiviral activity against Hepatitis C virus GT-1b harboring wild type NS5B polymerase
Hepatitis C virus [2] = assay: Antiviral activity against Hepatitis C virus GT-1a harboring wild type NS5B polymerase
Hepatitis C virus [3] = assay: Antiviral activity against Hepatitis C virus GT-1a harboring NS5B polymerase M414T mutant gene
Hepatitis C virus [4] = assay: Antiviral activity against Hepatitis C virus GT-1a harboring NS5B polymerase C316Y mutant gene
Hepatitis C virus [5] = assay: Antiviral activity against Hepatitis C virus GT-1a harboring NS5B polymerase C316Y/M414T mutant gene
Hepatitis C virus [6] = assay: Antiviral activity against Hepatitis C virus GT-1b assessed as inhibition of HCV replicon-encoded Renilla luciferase reporter activity after 3 days; conditions: 72 h
Hepatitis C virus [7] = assay: Antiviral activity against Hepatitis C virus GT-1b harboring NS5B polymerase C316Y mutant gene relative to wild type
Hepatitis C virus [8] = assay: Antiviral activity against Hepatitis C virus GT-1a harboring NS5B polymerase C316Y/L392F mutant gene
Hepatitis C virus [9] = assay: Antiviral activity against Hepatitis C virus GT-1a harboring NS5B polymerase L392F mutant gene
Hepatitis C virus [10] = assay: Antiviral activity against Hepatitis C virus GT-1a harboring NS5B polymerase L392F/M414T mutant gene
Hepatitis C virus [11] = assay: Antiviral activity against Hepatitis C virus GT-1a assessed as inhibition of HCV replicon-encoded Renilla luciferase reporter activity after 3 days; conditions: 72 h

EC50 (Hepatitis C virus [11]) | SMILES | EC50 (Hepatitis C virus [1]) | EC50 (Hepatitis C virus [2]) | EC50 (Hepatitis C virus [3]) | EC50 (Hepatitis C virus [4]) | EC50 (Hepatitis C virus [5]) | EC50 (Hepatitis C virus [6]) | EC50 (Hepatitis C virus [7]) | EC50 (Hepatitis C virus [8]) | EC50 (Hepatitis C virus [9]) | EC50 (Hepatitis C virus [10])
 | CNC(=O)c1c(-c2ccc(F)cc2)oc2cc(N(CCO)S(C)(=O)=O)c(C3CC3)cc12 [NESBUVIR] | 6 nM | 4 nM | 7 nM | 1700 nM | 2800 nM | 17 nM | 6 nM | 3200 nM | 8 nM | 22 nM
500 nM | CCC[C@H](NC(=O)[C@@H]1[C@H]2CCC[C@H]2CN1C(=O)[C@@H](NC(=O)[C@@H](NC(=O)c1cnccn1)C1CCCCC1)C(C)(C)C)C(=O)C(=O)NC1CC1 [TELAPREVIR] |  |  |  |  |  | 560 nM |  |  |  | 
